This note sets out measurements from US5380755A, “Alkyl and alkylbenzyl ethers of substituted hydroquinones” (The Du Pont Merck Pharmaceutical Company, priority 1992, dated 1995).

A word on the IC50: it is the concentration at which inhibition is half-maximal.

The subject of one test is MAO A / MAO B. Put plainly: in vitro inhibitory action on types A and B monoamine oxidase in rat brain tissue: A/B selectivity. It is filed as biochemical. The following applies: ratio MAO A / MAO B, 5-Hydroxytryptamine[14-C] 1.0 mM (MAO A), Phenethylamine[14-C] 200 mM (MAO B). From the text: The compounds of the present invention are useful in the inhibition of monoamine oxidases. […] This test measures the in vitro inhibitory action of the two types A and B monoamine oxidase in rat brain tissue. […] Finally, it is expected that the compounds of the present invention may be useful in treating neurological disorders including memory disorders, cognitive dysfunction, dementia, dementia of the Alzheimer's type, Parkinson's syndrome, depression, hyperactive syndrome, schizophrenia, and changes in temperament.
For the molecule `C#CCN(C)C(C)COc1ccc(OCc2cccc(Cl)c2)c(C(C)=O)c1` (centres unmarked) [Example 8, N-2-[3'-Acyl-4'-(m-chlorophenylmethyloxy)phenoxy]-1-methylethyl-N-methylpropargylamine], the A/B was under 300.
Consider `CC(=O)c1cc(OCc2cccc(Cl)c2)ccc1OCCCO` [Example 32], for which the A/B amounted to 400.
Take `CC(=O)c1cc(OCc2cc(C(F)(F)F)cc(C(F)(F)F)c2)ccc1OCCCC#N` [Example 6, 4-{2'-Acetyl-4'-[(3,5-trifluoromethylphenyl)methyloxy]phenoxy}-butyronitrile]: the A/B is listed as over 10000.

The next test concerns the target T1, MAO B (Rattus norvegicus, UniProt P19643).
T1 construct: two types A and B monoamine oxidase in rat brain tissue; from tissue; host or cells: rat brain
T1 sequence (P19643 1-520): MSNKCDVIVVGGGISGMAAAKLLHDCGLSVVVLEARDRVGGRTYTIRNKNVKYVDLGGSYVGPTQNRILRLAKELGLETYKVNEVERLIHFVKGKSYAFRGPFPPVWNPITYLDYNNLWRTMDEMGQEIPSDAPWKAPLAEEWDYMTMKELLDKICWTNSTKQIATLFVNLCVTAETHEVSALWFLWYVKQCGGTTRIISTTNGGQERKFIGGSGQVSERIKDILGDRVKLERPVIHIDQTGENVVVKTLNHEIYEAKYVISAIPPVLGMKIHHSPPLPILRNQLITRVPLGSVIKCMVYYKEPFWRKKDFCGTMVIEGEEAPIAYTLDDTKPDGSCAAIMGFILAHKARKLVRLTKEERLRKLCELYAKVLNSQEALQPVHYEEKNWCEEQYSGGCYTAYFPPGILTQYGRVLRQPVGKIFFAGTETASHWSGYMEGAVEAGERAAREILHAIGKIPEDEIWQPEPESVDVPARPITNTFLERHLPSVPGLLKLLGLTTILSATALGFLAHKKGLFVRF
Put plainly: in vitro inhibitory action on type B monoamine oxidase in rat brain tissue (J. Neurochem., 1983, 40, 1534). It is filed as biochemical. The following applies: 200 mM Phenethylamine[14-C] as substrate. From the text: This test measures the in vitro inhibitory action of the two types A and B monoamine oxidase in rat brain tissue.
As to `C#CCN(C)C(C)COc1ccc(OCc2cccc(Cl)c2)c(C(C)=O)c1` (centres unmarked) [Example 8, N-2-[3'-Acyl-4'-(m-chlorophenylmethyloxy)phenoxy]-1-methylethyl-N-methylpropargylamine], the half-inhibitory concentration (IC50) stood at 3 nM. This counts as single-digit nanomolar.
The same measure, in the same setting: the value for `CNC(C)COc1ccc(OCc2cccc(Cl)c2)c(C(C)=O)c1` (centres unmarked) [Example 19] was 7000 nM; that for `CC(=O)c1cc(OCc2cccc(Cl)c2)ccc1OCCCO` [Example 32] was 100 nM.
`CCC(=O)c1cc(OCc2ccc(F)cc2)ccc1OCCCC#N` [Example 33] showed a half-maximal inhibitory concentration (IC50) of over 100000 nM.
`CC(=O)c1cc(OCc2cc(C(F)(F)F)cc(C(F)(F)F)c2)ccc1OCCCC#N` [Example 6, 4-{2'-Acetyl-4'-[(3,5-trifluoromethylphenyl)methyloxy]phenoxy}-butyronitrile]: the half-inhibitory concentration (IC50) worked out at 100 nM.
